Data: PubChem BioAssay (NCI)
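Five compound concentrations were applied to cells in 96-well plates for 48 hours; endpoints were derived by simple linear interpolation of the resulting dose-response curve. GI50: concentration for 50% inhibition of growth. At the TGI there is no net growth.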

Columns and labels:
Test in all cases: DTP human tumour cell line panel, 48 h
U251 CNS = tested on: U251 CNS
HL-60(TB) leukemia = tested on: HL-60(TB) leukemia
OVCAR-3 ovarian = tested on: OVCAR-3 ovarian
SF-295 CNS = tested on: SF-295 CNS
LOX IMVI melanoma = tested on: LOX IMVI melanoma
HOP-92 NSCLC = tested on: HOP-92 NSCLC
UO-31 renal = tested on: UO-31 renal
SF-539 CNS = tested on: SF-539 CNS
NCI/ADR-RES ovarian = tested on: NCI/ADR-RES ovarian
MOLT-4 leukemia = tested on: MOLT-4 leukemia

Structure (SMILES) | TGI (U251 CNS) [µM] | TGI (HL-60(TB) leukemia) [µM] | TGI (OVCAR-3 ovarian) [µM] | TGI (SF-295 CNS) [µM] | TGI (LOX IMVI melanoma) [µM] | TGI (HOP-92 NSCLC) [µM] | TGI (UO-31 renal) [µM] | TGI (SF-539 CNS) [µM] | TGI (NCI/ADR-RES ovarian) [µM] | TGI (MOLT-4 leukemia) [µM] | GI50 (U251 CNS) [µM] | GI50 (HL-60(TB) leukemia) [µM] | GI50 (OVCAR-3 ovarian) [µM] | GI50 (SF-295 CNS) [µM] | GI50 (LOX IMVI melanoma) [µM] | GI50 (UO-31 renal) [µM] | GI50 (SF-539 CNS) [µM] | GI50 (NCI/ADR-RES ovarian) [µM] | GI50 (MOLT-4 leukemia) [µM] | GI50 (HOP-92 NSCLC) [µM]
Cn1c(=S)c2[nH]c(SCCCc3ccccc3)nc2n(C)c1=O | > 100 | > 100 | > 100 | 79.9 | > 100 | > 100 | 64.4 | > 100 | > 100 | > 100 |  |  |  |  |  |  |  |  |  | 
O=C1c2ccccc2C(=O)c2c(NCCN=Cc3ccccc3O)cccc21 | 19.5 | 3.89 | 7.92 | 5.01 | 9.63 | 0.0676 | 11 | 13.3 | > 100 | > 30.5 | 5.06 | 0.235 | 2.38 | 2.43 | 3.89 | 2.51 | 2.96 | 10.5 | 3.33 | 
COc1cc(/C=C2\CCC/C(=C\c3ccc(OCC4CO4)c(OC)c3)C2=O)ccc1OCC1CO1 (centres undefined) | 5.27 | > 100 | 6.23 | 84.4 | 3.78 | > 100 | 7.94 | 6.78 | > 100 | 34.1 | 2.11 | 3.59 | 2.44 | 4.35 | 1.23 | 2.51 | 2.4 | 4.86 | 2.91 | 3.3
Clc1nc(Cl)c2ncn(Cc3ccccc3Cn3cnc4c(Cl)nc(Cl)nc43)c2n1 | 4.63 | 9.14 | 2.85 | 22.4 | 2.65 | 4.16 | 3.85 | 0.719 | 17.2 | 5.13 | 2.05 | 1.79 | 1.47 | 7.05 | 1.16 | 1.91 | 0.16 | 7.04 | 1.99 | 1.9
CCOC(=O)C1=C(N)Oc2c(sc3c(C)cccc23)C1c1ccc(F)cc1 (centres undefined) | 17 | 4.62 | 13.1 | 2.41 | 12.3 | 13.4 | 18.3 | 3.48 | 14.5 | 17.5 | 0.58 | 0.374 | 0.403 | 0.297 | 0.596 | 0.583 | 0.36 | 0.384 | 1.88 | 2.13
COc1ccc(-c2cc(Nc3ccnc(N4CCOCC4)n3)on2)cc1 | 12.7 | 1.88 | 2.66 | 5.95 | 15.3 | 22.5 | 13.8 | 1.16 | 5.76 | 25.5 | 0.329 | 0.2 | 0.0728 | 0.171 | 0.353 | 0.742 | 0.264 | 0.143 | 0.766 | 3.46
Cn1cc(S(=O)(=O)N2CCC3=Cc4c(cnn4-c4ccc(F)cc4)C[C@]3(C(=O)c3cc(C(F)(F)F)ccn3)C2)cn1 | > 100 | > 100 | > 100 | > 100 | > 100 | > 100 | > 100 | > 100 | > 100 | > 100 | > 100 | > 100 | > 100 | > 100 | > 100 | 9.52 | 95.8 | > 100 | > 100 | 6.57
NCCCOc1cc(Cl)ccc1NC(=O)c1cc2ccccc2cc1OCCCN | 3.24 | 2.39 | 2.65 | 3.42 | 2.59 | 2.85 | 2.65 | 2.95 | 4.25 | 3.25 | 1.71 | 0.665 | 1.32 | 1.66 | 1.2 | 1.2 | 1.5 | 1.97 | 1.51 | 1.32
CN1C(NNC(=O)c2cccnc2)=NS(=O)(=O)c2cc(Cl)ccc21 | > 100 | > 100 | > 100 | > 100 | > 100 | > 100 | > 100 | > 100 | > 100 | > 100 | > 100 | > 100 | > 100 | > 100 | > 100 | > 100 | > 100 | > 100 | > 100 | > 100
COc1ccc(-c2nn(-c3cccc(Cl)c3)cc2-c2nc(N)[nH]c(=O)c2C#N)cc1 | 18.8 | 14.2 | 10 | 9.23 | 20.1 | 12.2 | 47.8 | 32.2 | 15.9 | 39.8 | 3.66 | 3.96 | 3.38 | 2.36 | 4.02 | 2.94 | 6.59 | 3.33 | 4.8 | 1.65
O=[N+]([O-])c1ccc(Sc2c3ccccc3nc3ccccc23)cn1 | > 60.1 | > 61.7 | 20.3 | > 100 | 26.9 | 16.9 | 32.3 | > 20.5 | > 100 | 6.62 |  |  |  |  |  |  |  |  |  | 
Oc1ccc(/C=C/c2cc(O)cc3c2C(c2cc(O)cc(O)c2)C(c2ccc(O)c(O)c2)O3)cc1 (centres undefined) | > 100 | 54.5 | 56.4 | > 100 | > 100 | > 100 | > 100 | > 100 | > 100 | 33.5 |  |  |  |  |  |  |  |  |  | 
O=C1/C(=C/N2N=C(c3ccc4ccccc4c3)CC2c2ccccc2O)SC(=S)N1c1cccnc1 (centres undefined) | 61 | > 100 | 38.5 | > 100 | > 100 | > 100 | > 100 | 5.16 | > 100 | > 100 | 0.897 | 0.616 | 0.571 | 2.63 | 1.24 | 0.852 | 1.18 | 3.43 | 2.46 | 5.2
COc1ccc2c(c1)C(C)Cc1c(ncnc1-n1cnc3ccccc31)N2C (centres undefined) | 16.2 | 3.74 | 3.41 | 10.2 | 18.2 | 8.23 | 19.2 | 0.774 | > 100 | 21.2 | 0.59 | 0.352 | 0.357 | 0.292 | 0.602 | 0.72 | 0.251 | 0.395 | 0.479 | 0.441
NC(=O)CNc1ccc([As]=[As]c2ccc(NCC(N)=O)cc2)cc1 (centres undefined) | 23.2 | 9.26 | 6.14 | 36.9 | 23.8 | 15.1 | 24.5 | > 100 | > 100 | > 100 | 1.57 | 1.75 | 2.1 | 8.91 | 6.03 | 8.21 | 2.8 | 9.13 | 9.29 | 1.63
O=C(N/N=C/c1ccc(O)cc1O)c1cccnc1 | 41.5 | > 100 | 29.4 | > 100 | > 100 | 43.5 | > 100 | 19.3 | > 100 | > 100 | 2.42 | 3.74 | 0.474 | 6.66 | 1.84 | 1.46 | 2.64 | 3.26 | 3.1 | 2.09
